Source: US12227511B2, “Bicyclic compounds as kinase modulators, methods and uses thereof” (Agency for Science, Technology and Research, priority 2018, dated 2025)
Where a name gives a salt, the structure may show the parent alone.

What follows are compounds tested on HCCLM3 cells (assay: GI50 in HCCLM3 cells, cell viability by MTS assay). Conditions: Homo sapiens, 72 hours incubation, triplicates, read-out: HCCLM3 activity range (GI50).
Type: cell-based
Experimental: To investigate the effects of compounds on hepatocellular carcinoma (HCC) cell viability, HCCLM3 cells (HCC cells with high metastatic potential) were incubated with increasing concentrations of test compounds for 72 hours. Cell viability was evaluated at the end of incubation period by MTS assay. […] All samples were evaluated in triplicates.
As set forth in Table 1 below, GI50 values are defined as follows: GI50≤10 μM (+++); GI50>10 μM and ≤20 μM (++); GI50>20 μM (+).

Row | SMILES | GI50
1 | COC(=O)C12CC(NC(=O)C3(C(=O)Nc4ccc(Oc5ccnc6cc(OC)c(OC)cc56)cc4)CC3)(C1)C2 [Compound 31, methyl 3-(1-((4-((6,7-dimethoxyquinolin-4-yl)oxy)phenyl)carbamoyl)cyclopropane-1-carboxamido)bicyclo[1.1.1]pentane-1-carboxylate] | ≤ 10 µM
2 | COc1cc2nccc(Oc3ccc(NC(=O)C4(C(=O)NC56CCC(CC5)C6)CC4)cc3)c2cc1OC [Compound 25, N-((1s,4s)-bicyclo[2.2.1]heptan-1-yl)-N-(4-((6,7-dimethoxyquinolin-4-yl)oxy)phenyl)cyclopropane-1,1-dicarboxamide] | ≤ 10 µM
3 | COc1cc2nccc(Oc3ccc(NC(=O)C4(C(=O)NC56CC(C(=O)N(C)C)(C5)C6)CC4)cc3)c2cc1OC [Compound 8, N-(4-((6,7-dimethoxyquinolin-4-yl)oxy)phenyl)-N-(3-(dimethylcarbamoyl)bicyclo[1.1.1]pentan-1-yl)cyclopropane-1,1-dicarboxamide] | > 20 µM
4 | COc1cc2nccc(Oc3ccc(NC(=O)C4(C(=O)NC56CC(NC(C)=O)(C5)C6)CC4)cc3)c2cc1OC [Compound 13, N-(3-acetamidobicyclo[1.1.1]pentan-1-yl)-N-(4-((6,7-dimethoxyquinolin-4-yl)oxy)phenyl)cyclopropane-1,1-dicarboxamide] | > 20 µM
5 | COc1cc2nccc(Oc3ccc(NC(=O)C4(C(=O)NC56CC(C(F)(F)F)(C5)C6)CC4)cc3)c2cc1OC [Compound 11, N-(4-((6,7-dimethoxyquinolin-4-yl)oxy)phenyl)-N-(3-(trifluoromethyl)bicyclo[1.1.1]pentan-1-yl)cyclopropane-1,1-dicarboxamide] | ≤ 10 µM
6 | COc1cc2nccc(Oc3ccc(NC(=O)C4(C(=O)NC56CC5CN(C(C)=O)C6)CC4)cc3)c2cc1OC (stereo not drawn) [Compound 18, N-(3-acetyl-3-azabicyclo[3.1.0]hexan-1-yl)-N-(4-((6,7-dimethoxyquinolin-4-yl)oxy)phenyl)cyclopropane-1,1-dicarboxamide] | > 20 µM
7 | COc1cc2nccc(Oc3ccc(NC(=O)C45CC(C(=O)NC6CC6)(C4)C5)cc3)c2cc1OC [Compound 36, N1-cyclopropyl-N3-(4-((6,7-dimethoxyquinolin-4-yl)oxy)phenyl)bicyclo[1.1.1]pentane-1,3-dicarboxamide] | > 20 µM
8 | COc1cc2nccc(Oc3ccc(NC(=O)C4(C(=O)NC56CCC(CC5)CC6)CC4)cc3)c2cc1OC [Compound 24, N-(bicyclo[2.2.2]octan-1-yl)-N-(4-((6,7-dimethoxyquinolin-4-yl)oxy)phenyl)cyclopropane-1,1-dicarboxamide] | 10 to 20 µM
9 | COc1cc2nccc(Oc3ccc(NC(=O)C4(C(=O)NC56CC(C(N)=O)(C5)C6)CC4)cc3)c2cc1OC [Compound 7, N-(3-carbamoylbicyclo[1.1.1]pentan-1-yl)-N-(4-((6,7-dimethoxyquinolin-4-yl)oxy)phenyl)cyclopropane-1,1-dicarboxamide] | > 20 µM
10 | COc1cc2nccc(Oc3ccc(NC(=O)C4(C(=O)NC56CC(C)(C5)C6)CC4)cc3)c2cc1OC [Compound 10, N-(4-((6,7-dimethoxyquinolin-4-yl)oxy)phenyl)-N-(3-methylbicyclo[1.1.1]pentan-1-yl)cyclopropane-1,1-dicarboxamide] | ≤ 10 µM
11 | COc1cc2nccc(Oc3ccc(NC(=O)C45CC(C(=O)N6CC7CC7C6)(C4)C5)cc3)c2cc1OC (stereo not drawn) [Compound 35, 3-(3-azabicyclo[3.1.0]hexane-3-carbonyl)-N-(4-((6,7-dimethoxyquinolin-4-yl)oxy)phenyl)bicyclo[1.1.1]pentane-1-carboxamide] | > 20 µM
12 | COc1cc2nccc(Oc3ccc(NC(=O)C4(C(=O)N5CC6CC6C5)CC4)cc3)c2cc1OC (stereo not drawn) [Compound 27, 1-(3-azabicyclo[3.1.0]hexane-3-carbonyl)-N-(4-((6,7-dimethoxyquinolin-4-yl)oxy)phenyl)cyclopropane-1-carboxamide] | > 20 µM
13 | COc1cc2nccc(Oc3ccc(NC(=O)C4(C(=O)NC56CC(F)(C5)C6)CC4)cc3)c2cc1OC [Compound 4, N-(4-((6,7-dimethoxyquinolin-4-yl)oxy)phenyl)-N-(3-fluorobicyclo[1.1.1]pentan-1-yl)cyclopropane-1,1-dicarboxamide] | ≤ 10 µM
14 | COc1cc2nccc(Oc3ccc(NC(=O)C4(C(=O)NC56CC(CO)(C5)C6)CC4)cc3)c2cc1OC [Compound 32, N-(4-((6,7-dimethoxyquinolin-4-yl)oxy)phenyl)-N-(3-(hydroxymethyl)bicyclo[1.1.1]pentan-1-yl)cyclopropane-1,1-dicarboxamide] | ≤ 10 µM
15 | COc1cc2nccc(Oc3ccc(NC(=O)C4(C(=O)NC56CC(NC(=O)C7(C(=O)Nc8ccc(Oc9ccnc%10cc(OC)c(OC)cc9%10)cc8)CC7)(C5)C6)CC4)cc3)c2cc1OC [Compound 14, N,N′-(bicyclo[1.1.1]pentane-1,3-diyl)bis(N-(4-((6,7-dimethoxyquinolin-4-yl)oxy)phenyl)cyclopropane-1,1-dicarboxamide)] | > 20 µM
16 | COc1cc2nccc(Oc3ccc(NC(=O)C4(C(=O)NC5C[C@H]6CC[C@@H](C5)N6C)CC4)cc3)c2cc1OC (stereo partly drawn) [Compound 23, ENDO-N-(4-((6,7-dimethoxyquinolin-4-yl)oxy)phenyl)-N-((1R,3r,5S)-8-methyl-8-azabicyclo[3.2.1]octan-3-yl)cyclopropane-1,1-dicarboxamide] | > 20 µM
17 | COc1cc2nccc(Oc3ccc(NC(=O)C4(C(=O)NC56CC(C(=O)O)(C5)C6)CC4)cc3)c2cc1OC [Compound 29, 3-(1-((4-((6,7-dimethoxyquinolin-4-yl)oxy)phenyl)carbamoyl)cyclopropane-1-carboxamido)bicyclo[1.1.1]pentane-1-carboxylic acid hydrochloride] | > 20 µM
18 | COc1cc2nccc(Oc3ccc(NC(=O)C4(C(=O)NC56CC(c7ccccc7)(C5)C6)CC4)cc3)c2cc1OC [Compound 2, N-(4-((6,7-dimethoxyquinolin-4-yl)oxy)phenyl)-N-(3-phenylbicyclo[1.1.1]pentan-1-yl)cyclopropane-1,1-dicarboxamide] | > 20 µM
19 | COc1cc2nccc(Oc3ccc(NC(=O)C4(C(=O)N5C[C@@H]6COC[C@@H](C6)C5)CC4)cc3)c2cc1OC [Compound 20, 1-((1R,5S)-3-oxa-7-azabicyclo[3.3.1]nonane-7-carbonyl)-N-(4-((6,7-dimethoxyquinolin-4-yl)oxy)phenyl)cyclopropane-1-carboxamide] | > 20 µM
20 | COc1cc2nccc(Oc3ccc(NC(=O)C4(C(=O)NC56CC(C5)C6)CC4)cc3)c2cc1OC [Compound 1, N-(bicyclo[1.1.1]pentan-1-yl)-N-(4-(6,7-dimethoxyquinolin-4-yloxy)phenyl)cyclopropane-1,1-dicarboxamide] | ≤ 10 µM
21 | COc1cc2nccc(Oc3ccc(NC(=O)C45CC(C(=O)NC67CC(F)(C6)C7)(C4)C5)cc3)c2cc1OC [Compound 3, N^1-(4-((6,7-dimethoxyquinolin-4-yl)oxy)phenyl)-N3-(3-fluorobicyclo[1.1.1]pentan-1-yl)bicyclo[1.1.1]pentane-1,3-dicarboxamide] | > 20 µM
22 | COc1cc2nccc(Oc3ccc(NC(=O)C4(C(=O)N5C[C@@H]6[C@H](C5)[C@H]6C(N)=O)CC4)cc3)c2cc1OC [Compound 22, EXO-3-(1-((4-((6,7-dimethoxyquinolin-4-yl)oxy)phenyl)carbamoyl)cyclopropane-1-carbonyl)-3-azabicyclo[3.1.0]hexane-6-carboxamide] | > 20 µM
23 | COc1cc2nccc(Oc3ccc(NC(=O)C4(C(=O)NC56CNCC5C6)CC4)cc3)c2cc1OC (stereo not drawn) [Compound 17, N-(3-azabicyclo[3.1.0]hexan-1-yl)-N-(4-((6,7-dimethoxyquinolin-4-yl)oxy)phenyl)cyclopropane-1,1-dicarboxamide] | > 20 µM
24 | COc1cc2nccc(Oc3ccc(NC(=O)C4(C(=O)NC56CC(c7cnccn7)(C5)C6)CC4)cc3)c2cc1OC [Compound 9, N-(4-((6,7-dimethoxyquinolin-4-yl)oxy)phenyl)-N-(3-(pyrazin-2-yl)bicyclo[1.1.1]pentan-1-yl)cyclopropane-1,1-dicarboxamide] | > 20 µM
25 | COc1cc2nccc(Oc3ccc(NC(=O)C4(C(=O)NC56CC(OC(=O)c7ccccc7)(C5)C6)CC4)cc3)c2cc1OC [Compound 5, 3-(1-((4-((6,7-dimethoxyquinolin-4-yl)oxy)phenyl)carbamoyl)cyclopropane-1-carboxamido)bicyclo[1.1.1]pentan-1-yl benzoate] | > 20 µM
26 | COc1cc2nccc(Oc3ccc(NC(=O)C4(C(=O)NC56CC7CC(CC(C7)C5)C6)CC4)cc3)c2cc1OC [Compound 28, N-((3R,5R)-adamantan-1-yl)-N-(4-((6,7-dimethoxyquinolin-4-yl)oxy)phenyl)cyclopropane-1,1-dicarboxamide] | 10 to 20 µM
27 | COC(=O)C12CCC(NC(=O)C3(C(=O)Nc4ccc(Oc5ccnc6cc(OC)c(OC)cc56)cc4)CC3)(CC1)CC2 [Compound 15, methyl 4-(1-((4-((6,7-dimethoxyquinolin-4-yl)oxy)phenyl)carbamoyl)cyclopropane-1-carboxamido)bicyclo[2.2.2]octane-1-carboxylate] | > 20 µM
28 | COc1cc2nccc(Oc3ccc(NC(=O)C4(C(=O)N5C6CCCC5CCC6)CC4)cc3)c2cc1OC [Compound 26, 1-((1s,5s)-9-azabicyclo[3.3.1]nonane-9-carbonyl)-N-(4-((6,7-dimethoxyquinolin-4-yl)oxy)phenyl)cyclopropane-1-carboxamide] | > 20 µM
29 | COCC12CC(NC(=O)C3(C(=O)Nc4ccc(Oc5ccnc6cc(OC)c(OC)cc56)cc4)CC3)(C1)C2 [Compound 30, N-(4-((6,7-dimethoxyquinolin-4-yl)oxy)phenyl)-N-(3-(methoxymethyl)bicyclo[1.1.1]pentan-1-yl)cyclopropane-1,1-dicarboxamide] | 10 to 20 µM
30 | COc1cc2nccc(Oc3ccc(NC(=O)C4(C(=O)NC56CC(C#N)(C5)C6)CC4)cc3)c2cc1OC [Compound 33, N-(3-cyanobicyclo[1.1.1]pentan-1-yl)-N-(4-((6,7-dimethoxyquinolin-4-yl)oxy)phenyl)cyclopropane-1,1-dicarboxamide] | 10 to 20 µM
